Test [1] concerns the target GDP-bound NRAS wild-type protein (Homo sapiens, UniProt P01111). Nature of the test: Binding to NRAS by surface plasmon resonance (SPR), KD and KD ratio to KRAS. The following applies: ratio of the KD value with respect to GDP-bound NRAS wild-type protein to the KD value with respect to KRAS. In a few lines:
(§1)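 SPR, 30°C: Avi-biotin RAS·GDP captured via Biotin CAPture (~100–300 RU); running buffer HBS pH 7.4, 1 mM DTT, 10 mM MgCl2, 0.01% Tween 20, 10 µM GDP, 4% DMSO. Single-cycle kinetics, 100 µL/min, 75 s injections; 1:1 model → KD.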
On the technique in general: SPR reads the build-up and loss of mass on a sensor chip optically.

A further test addresses HRAS wild-type protein (Homo sapiens, UniProt P01112). Nature of the test: Binding to HRAS by surface plasmon resonance (SPR), KD and KD ratio to KRAS. Conditions: ratio of the KD value with respect to HRAS wild-type protein to the KD value with respect to KRAS. In a few lines:
as §1

For test [2], the system named is human lung cancer strain NCI-H441. Type of test: cell-based. The gist of the method:
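Proliferation was scored by […] measured after the reagent was added to cultures kept at 37°C in 5% carbon dioxide.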

Where a SMILES comes first, the peptide text is derived from it. Bridges are numbered along the chain shown (N, C = ends). [ ]: non-standard residue; d: D form. The star is where a group is joined. hPhe(3-Cl-4-CF3) = N[C@@H](CCc1ccc(C(F)(F)F)c(Cl)c1)C(=O)O; NPrPhe(4-CF3) = CCCN[C@@H](Cc1ccc(C(F)(F)F)cc1)C(=O)O; NMeGly(cPent) = CN[C@H](C(=O)O)C1CCCC1; NMeChg = CN[C@H](C(=O)O)C1CCCCC1; NMeI = CC[C@H](C)[C@H](NC)C(=O)O; NMeD = CN[C@@H](CC(=O)O)C(=O)O; Ac4c(3-oxa) = NC1(C(=O)O)COC1; NMeL = CN[C@@H](CC(C)C)C(=O)O; NMeS = CN[C@@H](CO)C(=O)O; Morpholide = C1CN(*)CCO1; Piperidide = C1CCN(*)CC1; Ac5c = NC1(C(=O)O)CCCC1; Ac4c = NC1(C(=O)O)CCC1; Sar = CNCC(=O)O

Sequence of HRAS wild-type protein (P01112 whole entry): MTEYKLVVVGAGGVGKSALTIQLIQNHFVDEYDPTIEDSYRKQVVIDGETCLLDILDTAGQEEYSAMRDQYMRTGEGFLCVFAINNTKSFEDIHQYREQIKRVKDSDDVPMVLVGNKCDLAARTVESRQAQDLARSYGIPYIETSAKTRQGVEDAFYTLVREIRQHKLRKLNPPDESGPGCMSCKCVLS
Sequence of GDP-bound NRAS wild-type protein (P01111 whole entry): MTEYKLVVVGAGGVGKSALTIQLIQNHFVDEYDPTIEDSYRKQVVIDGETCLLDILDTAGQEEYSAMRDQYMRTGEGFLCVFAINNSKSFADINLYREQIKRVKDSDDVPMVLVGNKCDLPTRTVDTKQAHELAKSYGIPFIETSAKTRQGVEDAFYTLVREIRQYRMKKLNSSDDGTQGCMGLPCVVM

Consider `CCCN1C(=O)CN(C)C(=O)CN(C)C(=O)[C@H]([C@@H](C)CC)NC(=O)[C@H](CC(C)C)N(C)C(=O)C[C@@H](C(=O)N2CCOCC2)N(C)C(=O)[C@H](C2CCCC2)N(C)C(=O)C2(CCCC2)NC(=O)[C@H](COC)N(C)C(=O)[C@H](CCc2ccc(C(F)(F)F)c(Cl)c2)NC(=O)CN(C)C(=O)[C@@H]1Cc1ccc(C(F)(F)F)cc1` [PP1920] ([NMeL]I[Sar][Sar][NPrPhe(4-CF3)][Sar][hPhe(3-Cl-4-CF3)][NMeS](Me)[Ac5c][NMeGly(cPent)][NMeD]-Morpholide; lactam N-11), for which the “NRAS /KRAS” value in test [1] is “B (a compound having 3 or more and less than 10 is denoted as B)”. The “HRAS /KRAS” value on HRAS wild-type protein was “C (A compound having a KD ratio of 0.1 or more and less than 3 is denoted as C)”. Also, the IC50 (as a rule, the concentration needed to halve the response being measured) in test [2] was 32.4 nM.

For `CCCO[C@H](C)[C@@H]1NC(=O)[C@H](CC(C)C)N(C)C(=O)C[C@@H](C(=O)N(C)C)N(C)C(=O)[C@H](C2CCCC2)N(C)C(=O)C2(CC(C)(C)C2)NC(=O)[C@@H]2C[C@@H](OCC)CN2C(=O)[C@H](CCc2cc(F)c(C(F)(F)F)c(F)c2)NC(=O)CN(C)C(=O)[C@H](Cc2ccc(C(F)(F)F)cc2)N2CC/C=C\C[C@@H](C2=O)N(C)C(=O)CN(C)C1=O` [PP1921], the “NRAS /KRAS” value in test [1] is “A (a compound having 10 or more and less than 20 is denoted as A)”. Moreover, the “HRAS /KRAS” value on HRAS wild-type protein was “A (a compound having 10 or more and less than 20 is denoted as A)”. The same molecule returned an IC50 in test [2] of 7.8 nM.

In the case of `CCCN1C(=O)CN(C)C(=O)CN(C)C(=O)[C@H]([C@@H](C)CC)NC(=O)[C@H](CC(C)C)N(C)C(=O)C[C@@H](C(=O)N2CCOCC2)N(C)C(=O)[C@H](C2CCCC2)N(C)C(=O)C2(COC2)NC(=O)[C@@H]2CCCN2C(=O)[C@H](CCc2ccc(C(F)(F)F)c(Cl)c2)NC(=O)CN(C)C(=O)[C@@H]1Cc1ccc(C(F)(F)F)cc1` [PP1922] ([NMeL]I[Sar][Sar][NPrPhe(4-CF3)][Sar][hPhe(3-Cl-4-CF3)]P[Ac4c(3-oxa)][NMeGly(cPent)][NMeD]-Morpholide; lactam N-11), the “NRAS /KRAS” value in test [1] is “B (a compound having 3 or more and less than 10 is denoted as B)”. Also, the “HRAS /KRAS” value at HRAS wild-type protein was “C (A compound having a KD ratio of 0.1 or more and less than 3 is denoted as C)”. In addition, the IC50 in test [2] turned out to be 44.1 nM.

As for `CCCN(C)C(=O)[C@@H]1CC(=O)N(C)[C@@H](CC(C)C)C(=O)N[C@@H](C2CCOCC2)C(=O)N(C)CC(=O)N(C)[C@H]2C/C=C\CCN(C2=O)[C@@H](Cc2ccc(C(F)(F)F)cc2)C(=O)N(C)CC(=O)N[C@@H](CCc2cc(F)c(C(F)(F)F)c(F)c2)C(=O)N2C[C@H](OCC)C[C@H]2C(=O)NC2(CC(C)(C)C2)C(=O)N(C)[C@@H](C2CCCC2)C(=O)N1C` [PP1923], in test [1], the “NRAS /KRAS” value is “A (a compound having 10 or more and less than 20 is denoted as A)”. On HRAS wild-type protein, the “HRAS /KRAS” value is “A (a compound having 10 or more and less than 20 is denoted as A)”. In addition, it took 68 nM to reach half-maximal inhibition in test [2] (IC50).

Turning to `CCC[C@H]1C(=O)N[C@@H]([C@@H](C)CC)C(=O)N2CC[C@H]2C(=O)N(C)[C@H]2C/C=C\CCN(C2=O)[C@@H](Cc2ccc(C(F)(F)F)cc2)C(=O)N(C)CC(=O)N[C@@H](CCc2cc(F)c(C(F)(F)F)c(F)c2)C(=O)N2C[C@H](OCC)C[C@H]2C(=O)NC2(CC(C)(C)C2)C(=O)N(C)[C@@H](C2CCCC2)C(=O)N(C)[C@H](C(=O)N(C)C)CC(=O)N1C` [PP1925], the “NRAS /KRAS” value in test [1] was “A (a compound having 10 or more and less than 20 is denoted as A)”. At HRAS wild-type protein, the “HRAS /KRAS” value was “A (a compound having 10 or more and less than 20 is denoted as A)”. Moreover, half-maximal inhibition in test [2] (IC50) required 9.7 nM.

On to `CCCN1C(=O)CN(C)C(=O)CN(C)C(=O)[C@H]([C@@H](C)CC)NC(=O)[C@H](CC(C)C)N(C)C(=O)C[C@@H](C(=O)N2CCOCC2)N(C)C(=O)[C@H]([C@@H](C)CC)N(C)C(=O)C2(CCCC2)NC(=O)[C@@H]2CCCN2C(=O)[C@H](CCc2ccc(C(F)(F)F)c(Cl)c2)NC(=O)CN(C)C(=O)[C@@H]1Cc1ccc(C(F)(F)F)cc1` [PP1926] ([NMeL]I[Sar][Sar][NPrPhe(4-CF3)][Sar][hPhe(3-Cl-4-CF3)]P[Ac5c][NMeI][NMeD]-Morpholide; lactam N-11), for which the “NRAS /KRAS” value in test [1] was “B (a compound having 3 or more and less than 10 is denoted as B)”. For the same molecule, the “HRAS /KRAS” value at HRAS wild-type protein was “B (a compound having 3 or more and less than 10 is denoted as B)”. In test [2], this molecule returned an IC50 of 17.4 nM.

Take `CCC[C@H]1C(=O)N[C@@H]([C@@H](C)CC)C(=O)N[C@@H](C)C(=O)N(C)[C@H]2C/C=C\CCN(C2=O)[C@@H](Cc2ccc(C(F)(F)F)cc2)C(=O)N(C)CC(=O)N[C@@H](CCc2cc(F)c(C(F)(F)F)c(F)c2)C(=O)N2C[C@H](OCC)C[C@H]2C(=O)NC2(CC(C)(C)C2)C(=O)N(C)[C@@H](C2CCCC2)C(=O)N(C)[C@H](C(=O)N(C)C)CC(=O)N1C` [PP1927]: the “NRAS /KRAS” value in test [1] was “A (a compound having 10 or more and less than 20 is denoted as A)”. Besides, the “HRAS /KRAS” value at HRAS wild-type protein is “A (a compound having 10 or more and less than 20 is denoted as A)”. In test [2], this molecule showed an IC50 of 23.5 nM.

Consider `CCCN1C(=O)CN(C)C(=O)CN(C)C(=O)[C@H]([C@@H](C)CC)NC(=O)[C@H](CC(C)C)N(C)C(=O)C[C@@H](C(=O)N2CCOCC2)N(C)C(=O)[C@H](C2CCCCC2)N(C)C(=O)C2(CCC2)NC(=O)[C@@H]2CCCN2C(=O)[C@H](CCc2ccc(C(F)(F)F)c(Cl)c2)NC(=O)CN(C)C(=O)[C@@H]1Cc1ccc(C(F)(F)F)cc1` [PP1928] ([NMeL]I[Sar][Sar][NPrPhe(4-CF3)][Sar][hPhe(3-Cl-4-CF3)]P[Ac4c][NMeChg][NMeD]-Morpholide; lactam N-11), for which the “NRAS /KRAS” value in test [1] is “B (a compound having 3 or more and less than 10 is denoted as B)”. At HRAS wild-type protein, the “HRAS /KRAS” value was “B (a compound having 3 or more and less than 10 is denoted as B)”. In test [2], this molecule showed a 50% inhibitory concentration (IC50) of 18.4 nM.

Turning to `CCCN1C(=O)CN(C)C(=O)CN(C)C(=O)[C@H]([C@@H](C)CC)NC(=O)[C@H](CC(C)C)N(C)C(=O)C[C@@H](C(=O)N2CCCCC2)N(C)C(=O)[C@H](C2CCCC2)N(C)C(=O)C2(CCC2)NC(=O)[C@@H]2CCCN2C(=O)[C@H](CCc2ccc(C(F)(F)F)c(Cl)c2)NC(=O)CN(C)C(=O)[C@@H]1Cc1ccc(C(F)(F)F)cc1` [PP1930] ([NMeL]I[Sar][Sar][NPrPhe(4-CF3)][Sar][hPhe(3-Cl-4-CF3)]P[Ac4c][NMeGly(cPent)][NMeD]-Piperidide; lactam N-11), in test [1], the “NRAS /KRAS” value is “B (a compound having 3 or more and less than 10 is denoted as B)”. The “HRAS /KRAS” value on HRAS wild-type protein was “C (A compound having a KD ratio of 0.1 or more and less than 3 is denoted as C)”. The same molecule yielded an IC50 in test [2] of 7 nM.

Turning to `CCO[C@@H]1C[C@H]2C(=O)NC3(CC(C)(C)C3)C(=O)N(C)[C@@H](C3CCCC3)C(=O)N(C)[C@H](C(=O)N(C)C)CC(=O)N(C)[C@@H](CC(C)C)C(=O)N[C@@H]([C@@H](C)CC)C(=O)N(C)CC(=O)N(C)[C@H]3C/C=C\CCN(C3=O)[C@@H](Cc3ccc(C(F)(F)F)cc3)C(=O)N(C)CC(=O)N[C@@H](CCc3ccc(C(F)(F)F)c(F)c3)C(=O)N2C1` [PP1931], the “NRAS /KRAS” value in test [1] is “A (a compound having 10 or more and less than 20 is denoted as A)”. Also, at HRAS wild-type protein, the “HRAS /KRAS” value was “B (a compound having 3 or more and less than 10 is denoted as B)”. The molecule also showed an IC50 in test [2] of 9.5 nM.
